In ChEMBL document CHEMBL1129994, “Synthesis and transporter binding properties of 2,3-diphenyltropane stereoisomers. Comparison to 3beta-phenyltropane-2beta-carboxylic acid esters” (J Med Chem, 1997):
pIC50: −log10 of the molar value.

How the values were obtained:
[1] = target: Sodium-dependent dopamine transporter (Rattus norvegicus, UniProt P23977); assay: Inhibitory activity against Dopamine transporter using 0.5 nM [3H]WIN-35428 as radioligand
[2] = target: Norepinephrine transporter (Rattus norvegicus, UniProt Q9WTR4); assay: Inhibitory activity against Norepinephrine transporter using 0.5 nM [3H]-radioligand
Norepinephrine transporter, sequence (Q9WTR4 whole entry): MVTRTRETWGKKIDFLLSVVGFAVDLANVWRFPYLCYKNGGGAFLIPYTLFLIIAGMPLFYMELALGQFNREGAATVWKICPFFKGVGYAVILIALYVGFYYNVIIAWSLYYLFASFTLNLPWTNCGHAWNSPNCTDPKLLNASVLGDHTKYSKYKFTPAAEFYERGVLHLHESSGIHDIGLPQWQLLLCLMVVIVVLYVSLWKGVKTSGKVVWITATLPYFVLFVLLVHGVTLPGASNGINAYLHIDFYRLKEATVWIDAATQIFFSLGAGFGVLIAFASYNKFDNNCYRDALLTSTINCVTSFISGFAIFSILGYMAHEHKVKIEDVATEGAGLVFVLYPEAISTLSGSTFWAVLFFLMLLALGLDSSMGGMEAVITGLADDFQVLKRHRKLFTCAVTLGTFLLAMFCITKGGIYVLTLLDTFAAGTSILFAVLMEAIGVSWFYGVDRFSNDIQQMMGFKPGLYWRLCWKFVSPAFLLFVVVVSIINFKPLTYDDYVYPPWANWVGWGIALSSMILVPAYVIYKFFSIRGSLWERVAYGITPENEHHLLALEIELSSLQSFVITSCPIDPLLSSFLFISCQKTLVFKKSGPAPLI

[3] = target: Sodium-dependent serotonin transporter (Rattus norvegicus, UniProt P31652); assay: Inhibitory activity against Serotonin transporter using 0.2 nM [3H]paroxetine as radioligand
Sodium-dependent serotonin transporter, sequence (P31652 whole entry): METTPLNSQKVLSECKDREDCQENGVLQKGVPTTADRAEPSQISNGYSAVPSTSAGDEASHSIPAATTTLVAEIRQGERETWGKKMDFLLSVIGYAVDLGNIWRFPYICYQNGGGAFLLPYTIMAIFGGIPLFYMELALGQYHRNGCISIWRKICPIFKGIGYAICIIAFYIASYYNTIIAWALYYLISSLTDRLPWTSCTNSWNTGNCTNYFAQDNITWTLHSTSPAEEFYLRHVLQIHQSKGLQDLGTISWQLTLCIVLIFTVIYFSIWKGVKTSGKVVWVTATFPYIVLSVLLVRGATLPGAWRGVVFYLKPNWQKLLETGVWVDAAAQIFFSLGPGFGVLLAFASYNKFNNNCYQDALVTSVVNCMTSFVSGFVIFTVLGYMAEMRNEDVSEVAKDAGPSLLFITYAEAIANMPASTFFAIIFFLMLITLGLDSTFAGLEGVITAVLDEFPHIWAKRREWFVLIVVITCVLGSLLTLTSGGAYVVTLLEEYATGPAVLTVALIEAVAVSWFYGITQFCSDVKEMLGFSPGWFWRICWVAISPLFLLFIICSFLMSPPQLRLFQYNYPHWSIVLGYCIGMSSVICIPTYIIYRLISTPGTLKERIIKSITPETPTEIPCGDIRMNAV

Sodium-dependent dopamine transporter, sequence (P23977 whole entry): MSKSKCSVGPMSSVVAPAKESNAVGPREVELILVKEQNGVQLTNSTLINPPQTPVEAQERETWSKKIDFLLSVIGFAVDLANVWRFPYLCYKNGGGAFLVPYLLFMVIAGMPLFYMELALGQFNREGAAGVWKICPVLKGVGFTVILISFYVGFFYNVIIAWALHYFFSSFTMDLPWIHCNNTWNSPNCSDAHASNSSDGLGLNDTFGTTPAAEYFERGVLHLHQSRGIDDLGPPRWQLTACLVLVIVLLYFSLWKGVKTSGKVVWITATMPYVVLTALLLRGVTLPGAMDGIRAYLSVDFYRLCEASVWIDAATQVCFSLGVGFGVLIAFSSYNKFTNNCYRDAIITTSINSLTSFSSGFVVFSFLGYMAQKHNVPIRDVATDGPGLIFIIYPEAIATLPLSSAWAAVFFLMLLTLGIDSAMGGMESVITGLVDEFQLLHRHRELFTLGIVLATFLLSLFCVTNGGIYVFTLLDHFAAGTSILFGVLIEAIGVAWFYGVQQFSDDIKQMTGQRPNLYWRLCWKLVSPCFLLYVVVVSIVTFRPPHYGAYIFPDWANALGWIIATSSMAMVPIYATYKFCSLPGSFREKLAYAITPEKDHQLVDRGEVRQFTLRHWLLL

| SMILES | pIC50 [1] | pIC50 [2] | pIC50 [3] |
| --- | --- | --- | --- |
| CN1[C@@H]2CC[C@@H]1C(O)(c1ccccc1)C(c1ccccc1)C2 (mixture of isomers) | 5.54 | < 3.76 | 4.43 |
| CN1C2CCC1C(c1ccccc1)=C(c1ccccc1)C2 (racemic) | 6.26 | 4.67 | 4.32 |
| CN1[C@@H]2CC[C@H]1[C@H](c1ccccc1)[C@H](c1ccccc1)C2 (racemic) | – | 5.56 | 4.73 |
| CN1[C@@H]2CC[C@H]1[C@@H](c1ccccc1)[C@@H](c1ccccc1)C2 (racemic) | 7.55 | 5.57 | 4.46 |
